The test system of one test is LSR. Nature of the test: LSR activity (oleate-induced 125I-LDL binding, uptake, degradation) in primary cultures of rat hepatocytes. The class given is cell-based. Particulars: for oleate-induced LDL degradation / oleate-induced LDL binding: primary rat hepatocytes; for oleate-induced LDL degradation: 22-mer peptides; for oleate-induced LDL binding: peptide concentrations <50 μg/mL. The protocol:
FIGS. 6A, 6B, and 6C show the effect of leptin on ^125I-LDL and ^125I-chylomicron binding to LSR in primary cultures of rat hepatocytes. For FIG. 6A, primary cultures of rat hepatocytes (48 hours after plating) were incubated at 37° C. for 30 min in the absence (□) or presence (▪) of 50 ng/mL leptin in Buffer A, followed by a 20 min incubation at 37° C. with 0.5 mM oleate. The cells were then washed with ice-cold PBS, precooled for 10 min, and then incubated for 1 h at 4° C. with increasing concentrations of ^125I-LDL in Buffer A. Cells were washed, were lysed in 0.1 N NaOH and were counted for radioactivity. Results are shown as the mean of duplicate determinations. For FIG. 6B, primary cultures of rat hepatocytes were incubated at 37° C. for 30 min with or without 20 ng/mL leptin followed by incubation at 37° C. for 4 h with 6 μg protein/mL ^125I-chylomicrons in the absence or presence of 0.5 mM oleate in Buffer A. The cells were then washed and the ^125I-chylomicrons bound to the cell surface were released into the media by incubation with 10 mM suramin. The media was recovered and the radioactivity was measured. Results are shown as the mean±SD of six determinations. Fir FIG. 6C, after incubation at 37° C. for 30 min with 50 ng/mL leptin, the cells were incubated at room temperature for 30 min with 200 μg IgG/mL antibodies directed against rat LSR protein or irrelevant IgG. The amount of ^125I-chylomicrons bound was determined, and results are shown as means±SD of triplicate (irrelevant) or quadruplicate (anti-LSR) determinations.
FIGS. 7A and 7B show a comparison of the effect of human and mouse leptin on LSR activity in rat hepatocytes and on postprandial increase in plasma TG in db^Pas/db^Pas mice. For FIG. 7A, primary cultures of rat hepatocytes were incubated 30 min at 37° C. without (open bar) or with 10 ng/mL recombinant human (solid bar) or mouse (hatched bar) leptin in Buffer A. Oleate (0.5 mM) and ^125I-LDL (20 μg/mL) were added and the cells were incubated 2 h at 37° C. The media were removed and were analyzed for TCA-soluble degradation products. The mean of duplicate determinations is shown. For FIG. 7B, db^Pas/db^Pas mice were given a test meal as previously described, followed immediately by injection i.p. of saline (open bar, n=4), human leptin (1 μg/animal; solid bar, n=3) or mouse leptin (0.25 μg/animal; hatched bar; n=3). The data represent the difference in TG concentrations measured at t=0 and the average of the concentrations at 3 and 4 hours. Results are shown as mean±SEM.
Cells were incubated 30 min at 37° C. with increasing concentrations of mouse (▪) or human (●) leptin peptide. Following this, 0.5 mM oleate and 20 μg/mL ^125I-LDL were added and the cells were further incubated for 2 h at 37° C. The cells were washed, and the amount of oleate-induced ^125I-LDL bound and degraded was measured as described previously (Bihain, B. E., and Yen, F. T. (1992). Free fatty acids activate a high-affinity saturable pathway for degradation of low-density lipoproteins in fibroblasts from a subject homozygous for familial hypercholesterolemia. Biochemistry 31, 4628-4636).
FIGS. 11A and 11B show the effect of mouse leptin (FIG. 11A) or leptin peptide (FIG. 11B) on postprandial plasma TG response in ob/ob mice. […] Postprandial triglyceridemia was measured as described previously. Each point represents the mean±SEM (A: saline, n=8, leptin, n=7; leptin peptide: saline, n=8, leptin, n=8). […] Primary cultures of rat hepatocytes were incubated 30 min at 37° C. with increasing concentrations of mouse leptin peptide. Oleate (0.5 mM) and ^125I-LDL (20 μg/mL) were added and the cells were incubated 2 h at 37° C. After washing, the amount of 125I-LDL bound to the cell surface was measured as described in the Examples section herein. […]

For another test, the system named is ob/ob mice. Put plainly: Postprandial plasma TG response after high-fat test meal in ob/ob mice. Type of test: in vivo, mouse. Particulars: for postprandial lipemic response: single subcutaneous injection of 50 ng. The protocol: FIGS. 11A and 11B show the effect of mouse leptin (FIG. 11A) or leptin peptide (FIG. 11B) on postprandial plasma TG response in ob/ob mice. […] Postprandial triglyceridemia was measured as described previously. Each point represents the mean±SEM (A: saline, n=8, leptin, n=7; leptin peptide: saline, n=8, leptin, n=8). […] Primary cultures of rat hepatocytes were incubated 30 min at 37° C. with increasing concentrations of mouse leptin peptide. Oleate (0.5 mM) and ^125I-LDL (20 μg/mL) were added and the cells were incubated 2 h at 37° C. After washing, the amount of 125I-LDL bound to the cell surface was measured as described in the Examples section herein.
Mice that were fasted for 2-3 hours were gavage-fed 300 μL of a test meal consisting of 60% fat (37% saturated, 27% mono-, and 36% polyunsaturated fatty acids), 20% protein and 20% carbohydrate, and providing 56 kcal of energy/kg (1.5 g butter, 1.5 g sunflower oil, 2.5 g nonfat dry milk, 2.5 g sucrose and 3 ml water). Immediately after the meal, the animals were injected intravenously (db/db) or intraperitoneally (db^Pas/db^Pas) with either 200 μL physiological saline or 200 μL of the same solution containing recombinant mouse leptin. At selected time intervals, 20 μL of blood were collected from the orbital (db^Pas/db^Pas) or tail (db/db) vein into ice-cold microfuge tubes containing 4 mmol/L EDTA. Plasma was obtained by centrifugation at 2500 rpm for 20 min at 4° C., and was frozen as aliquots at −80° C. before analysis. TG concentrations were determined using a commercially available enzymatic kit with controls included in each assay (Precinorm L, Roche-Boehringer Mannheim; Lyotrol N, BioMérieux).
The inhibition of the intestinal absorption of dietary lipids by leptin was also investigated. Overnight-fasted ob/ob mice were gavage-fed a high fat test meal. […] Blood samples were taken at 2 and 3 h after the test meal, and plasma TG concentrations were measured (see Table, below). […]

Marks after values point to notes of the source that are not given here.

From patent publication US7470669B2, “Isolated polypeptide comprising a leptin fragment” (Serono Genetics Institute, S.A., priority 1999, dated 2008) come the findings set out here.

Take “CHLPWASGLETLDSLGGVLEAS (listed as Homo sapiens) [human peptide, human leptin fragment residues 117-138, 22-mer]”: in the test on LSR, the “oleate-induced LDL degradation” value is “inhibitory effect” and the “oleate-induced LDL binding” value is recorded as “increased”.

As to “CSLPQTSGLQKPESLDGVLEAS (listed as Mus musculus) [mouse peptide, mouse leptin fragment residues 117-138, 22-mer]”, the postprandial lipemic response entry with ob/ob mice is given as “reduced the postprandial lipemic response”. In the test with LSR (primary cultures of rat hepatocytes (FIG. 11B insert)), the “oleate-induced binding of 125I-LDL” value is given as “stimulate”. Moreover, in the test on LSR, the “oleate-induced LDL degradation” value is “inhibitory effect” and the “oleate-induced LDL binding” value is “increased”.

Consider “leptin: plasma protein of 16 kDa produced by adipocytes; recombinant human or mouse leptin, species depends on the experiment”, for which the “Plasma TG 2-3 hours after test meal” value with ob/ob mice (i.v. 0.5 μg recombinant mouse leptin and/or 2.5 mg lactoferrin, mean ± SD) is 0.79 ± 0.1* mg/mL. Also, the postprandial lipemic response result in the test with ob/ob mice is “decreases the postprandial lipemic response”.
